Reference: PubChem BioAssay (NCI)
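Step 1: Grow cells in 96-well plates. Step 2: Expose to compound for 48 hours at 5 concentrations. Step 3: Interpolate endpoints linearly; if unreached, use highest concentration. GI50: concentration for 50% inhibition of growth. TGI denotes the concentration required for complete inhibition of growth.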

Experiments:
Experiment in all cases: NCI anticancer screen, dose series, 48 h
[1] = test system: OVCAR-4 ovarian
[2] = test system: OVCAR-3 ovarian
[3] = test system: SK-MEL-5 melanoma
[4] = test system: HCC-2998 colon
[5] = test system: 786-0 renal
[6] = test system: NCI-H522 lung
[7] = test system: OVCAR-8 ovarian
[8] = test system: SF-268 CNS
[9] = test system: A498 renal
[10] = test system: SK-MEL-2 melanoma
[11] = test system: ACHN renal
[12] = test system: OVCAR-5 ovarian
[13] = test system: SW-620 colon
[14] = test system: KM12 colon
[15] = test system: RPMI-8226 leukemia
[16] = test system: K-562 leukemia
[17] = test system: HCT-116 colon
[18] = test system: COLO 205 colon
[19] = test system: SK-MEL-28 melanoma
[20] = test system: SNB-19 CNS
[21] = test system: SR leukemia
[22] = test system: EKVX NSCLC
[23] = test system: SF-539 CNS
[24] = test system: HCT-15 colon
[25] = test system: HT29 colon
[26] = test system: LOX IMVI melanoma
[27] = test system: MOLT-4 leukemia
[28] = test system: SN12C renal
[29] = test system: UACC-62 melanoma
[30] = test system: NCI-H460 lung
[31] = test system: A549 NSCLC
[32] = test system: U251 CNS
[33] = test system: SF-295 CNS
[34] = test system: NCI-H23 lung
[35] = test system: SK-OV-3 ovarian
[36] = test system: MCF7 breast
[37] = test system: HS 578T breast
[38] = test system: HL-60(TB) leukemia
[39] = test system: SNB-75 CNS
[40] = test system: DU-145 prostate
[41] = test system: T-47D breast
[42] = test system: MALME-3M melanoma
[43] = test system: HOP-62 NSCLC
[44] = test system: MDA-MB-231 breast
[45] = test system: BT-549 breast
[46] = test system: CAKI-1 renal
[47] = test system: MDA-MB-435
[48] = test system: M14 melanoma
[49] = test system: UO-31 renal
[50] = test system: TK-10 renal
[51] = test system: NCI-H226 lung
[52] = test system: NCI/ADR-RES ovarian
[53] = test system: CCRF-CEM leukemia
[54] = test system: IGROV1 ovarian
[55] = test system: PC-3 prostate
[56] = test system: UACC-257 melanoma
[57] = test system: HOP-92 NSCLC

SMILES: CCCCN1C=CCN(CCCC)C1
- GI50 [1]: 58.8 µM
- TGI [1]: > 100 µM
- GI50 [2]: 23.8 µM
- TGI [2]: 57.2 µM
- GI50 [3]: 30.1 µM
- TGI [3]: > 100 µM
- GI50 [4]: 34 µM
- TGI [4]: > 100 µM
- GI50 [5]: > 100 µM
- TGI [5]: > 100 µM
- GI50 [6]: 52.5 µM
- TGI [6]: > 100 µM
- GI50 [7]: 61.7 µM
- TGI [7]: > 100 µM
- GI50 [8]: 53 µM
- TGI [8]: > 100 µM
- GI50 [9]: > 100 µM
- TGI [9]: > 100 µM
- GI50 [10]: 46.3 µM
- TGI [10]: > 100 µM
- GI50 [11]: 89.7 µM
- TGI [11]: > 100 µM
- GI50 [12]: > 100 µM
- TGI [12]: > 100 µM
- GI50 [13]: 70.1 µM
- TGI [13]: > 100 µM
- GI50 [14]: 35.8 µM
- TGI [14]: > 100 µM
- GI50 [15]: 23.6 µM
- TGI [15]: 93.6 µM
- GI50 [16]: 32 µM
- TGI [16]: > 100 µM
- GI50 [17]: 39 µM
- TGI [17]: > 100 µM
- GI50 [18]: 28.9 µM
- TGI [18]: > 100 µM
- GI50 [19]: 86.9 µM
- TGI [19]: > 100 µM
- GI50 [20]: 46.4 µM
- TGI [20]: > 100 µM
- GI50 [21]: > 100 µM
- TGI [21]: > 100 µM
- GI50 [22]: 18.5 µM
- TGI [22]: > 100 µM
- GI50 [23]: > 100 µM
- TGI [23]: > 100 µM
- GI50 [24]: > 100 µM
- TGI [24]: > 100 µM
- GI50 [25]: 61.4 µM
- TGI [25]: > 100 µM
- GI50 [26]: 68.5 µM
- TGI [26]: > 100 µM
- GI50 [27]: 60.7 µM
- TGI [27]: > 100 µM
- GI50 [28]: 71.7 µM
- TGI [28]: > 100 µM
- GI50 [29]: 48.1 µM
- TGI [29]: > 100 µM
- GI50 [30]: 47.5 µM
- TGI [30]: > 100 µM
- GI50 [31]: > 100 µM
- TGI [31]: > 100 µM
- GI50 [32]: 32.2 µM
- TGI [32]: > 100 µM
- GI50 [33]: 49.8 µM
- TGI [33]: > 100 µM
- GI50 [34]: 63.8 µM
- TGI [34]: > 100 µM
- GI50 [35]: > 100 µM
- TGI [35]: > 100 µM
- GI50 [36]: 57 µM
- TGI [36]: > 100 µM
- GI50 [37]: 63.4 µM
- TGI [37]: > 100 µM
- GI50 [38]: 21.2 µM
- TGI [38]: 75.4 µM
- GI50 [39]: > 100 µM
- TGI [39]: > 100 µM
- GI50 [40]: > 100 µM
- TGI [40]: > 100 µM
- GI50 [41]: 27.3 µM
- TGI [41]: > 100 µM
- GI50 [42]: 21.2 µM
- TGI [42]: 57.3 µM
- GI50 [43]: > 100 µM
- TGI [43]: > 100 µM
- GI50 [44]: > 100 µM
- TGI [44]: > 100 µM
- GI50 [45]: > 100 µM
- TGI [45]: > 100 µM
- GI50 [46]: > 100 µM
- TGI [46]: > 100 µM
- GI50 [47]: 33.8 µM
- TGI [47]: > 100 µM
- GI50 [48]: 85.1 µM
- TGI [48]: > 100 µM
- GI50 [49]: > 100 µM
- TGI [49]: > 100 µM
- GI50 [50]: > 100 µM
- TGI [50]: > 100 µM
- GI50 [51]: > 100 µM
- TGI [51]: > 100 µM
- GI50 [52]: > 100 µM
- TGI [52]: > 100 µM
- GI50 [53]: > 100 µM
- TGI [53]: > 100 µM
- GI50 [54]: 66.4 µM
- TGI [54]: > 100 µM
- GI50 [55]: 37.7 µM
- TGI [55]: > 100 µM
- GI50 [56]: 22.8 µM
- TGI [56]: 80.7 µM

SMILES: COc1ccc(P2(=S)OCCOP(=S)(c3ccc(OC)cc3)S2)cc1 (stereo unspecified)
- TGI [1]: > 100 µM
- TGI [2]: 6.11 µM
- TGI [3]: > 41.9 µM
- TGI [4]: 7.5 µM
- TGI [5]: > 42 µM
- TGI [6]: 6.11 µM
- TGI [7]: > 61.6 µM
- TGI [8]: > 100 µM
- TGI [9]: 7.05 µM
- TGI [10]: > 100 µM
- TGI [11]: > 100 µM
- TGI [12]: > 100 µM
- TGI [13]: > 100 µM
- TGI [14]: > 100 µM
- TGI [16]: > 100 µM
- TGI [57]: > 100 µM
- TGI [17]: > 100 µM
- TGI [18]: 55.8 µM
- TGI [19]: > 100 µM
- TGI [20]: > 100 µM
- TGI [21]: > 100 µM
- TGI [22]: > 100 µM
- TGI [23]: 6.7 µM
- TGI [24]: > 100 µM
- TGI [26]: 42.6 µM
- TGI [27]: > 39.5 µM
- TGI [28]: 33.9 µM
- TGI [29]: > 100 µM
- TGI [30]: > 32.2 µM
- TGI [31]: > 100 µM
- TGI [32]: > 100 µM
- TGI [33]: > 27.6 µM
- TGI [34]: > 100 µM
- TGI [36]: 19.4 µM
- TGI [37]: > 100 µM
- TGI [38]: > 23.3 µM
- TGI [39]: > 100 µM
- TGI [40]: > 100 µM
- TGI [41]: > 100 µM
- TGI [42]: > 100 µM
- TGI [43]: > 100 µM
- TGI [44]: > 100 µM
- TGI [45]: > 79.9 µM
- TGI [46]: > 100 µM
- TGI [47]: 40.7 µM
- TGI [48]: > 100 µM
- TGI [49]: > 50.7 µM
- TGI [50]: > 100 µM
- TGI [51]: > 100 µM
- TGI [52]: > 100 µM
- TGI [53]: 25.1 µM
- TGI [54]: > 100 µM
- TGI [55]: 5.48 µM
- TGI [56]: > 79.8 µM
